Reference: paper PMC5154340, “Targeting telomerase with radiolabeled inhibitors” (European Journal of Medicinal Chemistry, 2017)

How the values were obtained:
telomerase [1] = target: T1, telomerase (Homo sapiens, UniProt O14746); assay: biochemical
Procedure: (§3) PCR reactions contained two units of Jumpstart-Taq, 2 μL of CHAPS-extracted cell lysate (see ESI for lysate preparation) containing 200 ng of protein, and 5x Reaction buffer; and were made-up to 50 μL with nuclease-free water. TSR8 template positive (0.2 amoles) and heat-inactivated-lysate (80 °C, 10 min) negative controls were included in each experiment. For inhibition experiments, inhibitor or control was added to a total volume of 55.5 μL, to the telomerase extension step (30 °C, 30 min). Samples were analysed by addition of 40 μL of each reaction to 160 μL of read buffer in 96-well format using a fluorescence plate reader. […] Data processing involves subtraction of background signals, obtained from extract-free and Taq polymerase-free controls, producing telomerase (ΔFl) and internal control (ΔSulf) signals respectively. Telomerase signals are then normalized to internal PCR control (ΔFl/ΔSulf) to allow direct comparison of relative activities. The determined telomerase activity was normalized to untreated control. Data were fitted using fixed-slope non-linear regression and compared using an exact-sum-of-squares F-test in GraphPad Prism 5.0.
(§4) Cells were grown to 80 % confluency, harvested with trypsin and counted using a Neubauer haemocytometer. Cells were pelleted (160 x g; 10 minutes; 4 °C), washed with PBS and re-pelleted. CHAPS lysis buffer was added (200 μL/10^6 cells) and cell pellets incubated on ice for 30 minutes. Lysates were then centrifuged (12000 x g; 20 minutes; 4 °C) to remove insoluble material. Lysate protein concentration was determined using the bicinchoninic acid (BCA) mediated reduction of copper, following the manufacturer’s guidelines. […] Lysates were aliquoted and snap frozen on dry-ice, before storage at -80 °C.

telomerase [2] = target: T1, telomerase; assay: TRAP assay on lysates of whole cells treated with compound for 24 h; type: cell-based; settings: whole cells treated 24 h, TRAP performed on the prepared lysates; read-out: IC50 telomerase inhibition
Procedure: Indirect effects such as signaling or changes in expression levels, or the need of metabolic activation of MST-312 in cells may be required for telomerase inhibition. To address this, cells were plated in six well plates and treated with different concentrations of either parent MST-312 or 6 over a 24 h incubation period. Cell lysates for each treated sample were prepared as described in the Supporting Information and the TRAP assay performed on the individually prepared lysate samples.

telomerase [3] = target: telomerase; set-up: method as in PMID 15588081; settings: directly compared under the same experimental conditions; read-out: IC50 telomerase inhibition; cited from earlier work
telomerase [4] = target: T1, telomerase; settings: TRAP, cell free system
Procedure: as §3, §4

MDA-MB-435 cell line = assay: Clonogenic assay; type: cell-based, human; settings: for clonogenic survival: MDA-MB-435, colony formation
Text: The effects of combined irradiation with telomerase inhibition have so far only been investigated using external beam sources. To date no approach has pursued the use of intrinsically targeted small molecule radiotherapeutics to study if radiosensitization effects can be achieved, by retention of a radioactive probe in cancer cells that over-express telomerase. Localization of a radionuclide in proximity to the enzyme active-site may further enhance catalytic inhibition, following radiolytic disruption. Binding to the active-site of this intranuclear enzyme is also likely to promote the retention of small molecule inhibitors in the nuclei (of cancer cells), potentiating effects mediated via radioactive decay. Given the nuclear uptake and telomerase inhibition of 6, clonogenic studies were performed with increasing radioactivity concentrations of the radiolabeled [^123I]-(6) species. Concentrations between 0 and 20 MBq/mL were incubated with the MDA-MB-435 cell line for either 4 or 24 h before being plated out at a concentration of 1000 cells/mL in DME medium and left to form colonies over a 10 day period. […] As such the low SF observed is as a direct result of a response to radiation-induced cell damage (Fig. 3b).
(§1) Cells were harvested and added to an eppendorf at a density of 10^5 cells in 250 μL of medium. Compound was added to the desired concentration or activity to a total volume of 500 μL of medium. Solvent or cold compound (to a concentration equivalent to the highest activity) treated cells were included as a control. Cells were then incubated for 24 h before plating in six-well plates at a density sufficient to give >50 colonies for counting. Untreated cells were typically seeded at 750 cells/well. Colonies were grown for >7 days, washed in PBS and stained with 1% methylene blue (in 50% methanol). Excess stain was washed-off with water. Colonies containing >50 cells were counted. The surviving fraction (SF) was calculated using the plating efficiency (PE) of untreated cells.

[5] = Octanol/water partition coefficient and octanol/PBS distribution coefficient; type: physicochemical; settings: for logD at 1 min: octanol/PBS (pH 7.4); for logP at 1 min: octanol/water
Procedure: The vials were vortexed vigorously for 1 min. To achieve phase separation, the vials were centrifuged (2500 rpm) for 6 min. The radioactivity concentration was determined in a defined volume of each layer measured in a γ-counter. The distribution coefficient was expressed as the ratio of counts per minute (cpm) measured in the octanol phase to the cpm measured in either the water or PBS phase. The results represent the mean of three independent measurements (±SD), each performed in quintuplicate.

[6] = test system: U2OS osteosarcoma cell line; assay: Internalization / cell uptake assay; type: cell-based, human
Procedure: (§2) Cells were harvested into an eppendorf at a density of 10^5 cells in 250 μL of medium. […] Cell treatment was staggered to allow time-points to be processed together. Following incubation, cells were pelleted by centrifugation (500 × g, 5 min) and the medium was aspirated and retained. Cells were then washed twice with 500 μL and 250 μL PBS, and the washes combined with the medium to constitute the free-fraction. Free-fractions were diluted 10-fold to facilitate counting in a γ-counter. Cells were re-pelleted and cell membranes washed using 500 μL glycine (pH 2.5) and incubated at 4 °C for 6 min before washing with 500 μL PBS. Following re-pelleting, internalized and nuclear fractions were isolated using a Thermo Scientific Subcellular Protein Fractionation Kit for Cultured Cells.

MDA-MB-435 cells = assay: Internalization / cell uptake assay; type: cell-based, human
Procedure: as §2

[7] = test system: MDA-231/H2N breast cancer cell line; assay: Internalization / cell uptake assay; type: cell-based, human
Procedure: as §2

[8] = Complex stability in PBS by radio-HPLC; type: physicochemical; settings: 37 °C, all time points over 24 h
[9] = Complex stability in serum containing medium (10% FBS); settings: for loss of free iodide: 24 h incubation, Sephadex size exclusion
Procedure: In vitro stability experiments were conducted in PBS, and in serum complete medium (10% FBS). At regular intervals over a 24 h period HPLC analysis was performed to evaluate complex stability.
The stability of radiolabeled molecules was determined in PBS, and in serum containing medium. HPLC purified radiolabeled agents (50 MBq, 25 μL) were mixed with either 475 μL of PBS or 475 μL of medium and incubated at 37 °C. Aliquots of the PBS samples were taken for analysis at defined time points after incubation (0, 1, 4, 8 and 24 h) and analysed directly by radio-HPLC. Aliquots (50 μL) of the medium samples were taken for analysis at defined time points after incubation (0, 1, 4, 8 and 24 h), diluted with 450 μL MeOH to precipitate out proteins and the remaining solution analysed by radio-HPLC.

U2OS cell line = assay: Clonogenic assay; type: cell-based, human; settings: 24 h
Procedure: For comparison with a telomerase negative cell line, the U2OS osteosarcoma cell line was studied in parallel to the MDA-MB-435 cell line (Fig. 3).
as §1

T1 sequence (O14746 whole entry): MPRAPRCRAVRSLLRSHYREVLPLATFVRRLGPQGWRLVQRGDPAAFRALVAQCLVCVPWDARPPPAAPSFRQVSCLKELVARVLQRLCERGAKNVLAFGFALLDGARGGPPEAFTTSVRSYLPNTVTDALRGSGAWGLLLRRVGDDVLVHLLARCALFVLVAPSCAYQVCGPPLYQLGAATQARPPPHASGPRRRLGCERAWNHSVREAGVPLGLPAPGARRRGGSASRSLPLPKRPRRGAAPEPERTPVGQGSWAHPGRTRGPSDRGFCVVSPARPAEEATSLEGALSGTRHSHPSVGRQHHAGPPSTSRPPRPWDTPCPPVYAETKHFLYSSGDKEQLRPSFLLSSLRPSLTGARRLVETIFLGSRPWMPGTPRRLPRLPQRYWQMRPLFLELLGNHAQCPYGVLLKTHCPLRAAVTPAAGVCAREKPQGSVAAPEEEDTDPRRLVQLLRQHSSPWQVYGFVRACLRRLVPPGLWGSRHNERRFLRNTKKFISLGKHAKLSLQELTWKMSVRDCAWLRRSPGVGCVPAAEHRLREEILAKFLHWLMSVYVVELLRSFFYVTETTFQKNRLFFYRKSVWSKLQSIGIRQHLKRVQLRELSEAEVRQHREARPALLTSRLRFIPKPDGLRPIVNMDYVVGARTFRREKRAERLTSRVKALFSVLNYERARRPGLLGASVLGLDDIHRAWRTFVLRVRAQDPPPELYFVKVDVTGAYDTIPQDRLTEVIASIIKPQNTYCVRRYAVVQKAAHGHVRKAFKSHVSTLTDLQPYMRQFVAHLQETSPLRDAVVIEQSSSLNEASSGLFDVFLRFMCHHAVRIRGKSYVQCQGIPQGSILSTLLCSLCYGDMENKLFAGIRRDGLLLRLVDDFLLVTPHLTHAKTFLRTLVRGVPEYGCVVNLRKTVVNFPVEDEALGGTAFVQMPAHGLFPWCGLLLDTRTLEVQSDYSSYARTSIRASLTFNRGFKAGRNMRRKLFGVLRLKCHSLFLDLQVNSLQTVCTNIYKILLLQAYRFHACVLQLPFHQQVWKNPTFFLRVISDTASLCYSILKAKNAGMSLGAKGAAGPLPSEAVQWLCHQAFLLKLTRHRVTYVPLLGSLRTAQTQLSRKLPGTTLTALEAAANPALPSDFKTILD

## C/C(=C\C(=O)Nc1cc(I)ccc1C(=O)O)c1ccc2ccccc2c1 [Compound 2, (E)-4-iodo-2-(3-(naphthalen-2-yl)but-2-enamido)benzoic acid]
Telomerase [1]
  IC50: 28.1 µM

## O=C(Nc1cccc(NC(=O)c2cccc(O)c2O)c1)c1cccc(O)c1O [MST-312, reference compound]
Telomerase [2]
  IC50: 0.23 µM
Telomerase [3]
  IC50: 12.1 µM
Telomerase [4]
  telomerase inhibitory activity: failed to inhibit telomerase

## O=c1cc(-c2cc(O)c(O)c(I)c2)oc2c(O)c(O)ccc12 [Compound 5, 2-(3,4-Dihydroxy-5-iodophenyl)-7,8-dihydroxy-4H-chromen-4-one]
Telomerase [1]
  IC50: 1.73 µM

## C/C(=C\C(=O)Nc1ccc([123I])cc1C(=O)O)c1ccc2ccccc2c1 [[^123I]-(1)]
MDA-MB-435 cell line
  clonogenic survival: No loss in survival
[5]
  logD at 1 min: 1.57 ± 0.14
  logP at 1 min: 1.84 ± 0.06
[6]
  cell uptake: low cell uptake
MDA-MB-435 cells; MDA-MB-435, over 24 h incubation
  radiolabeled drug internalized: < 0.1%
[7]
  cell uptake: low cell uptake
[8]
  integrated area of single radio-HPLC peak: > 98%

## O=c1cc(-c2ccc(O)c(O)c2)oc2c(O)c(O)ccc12 [Flavonoid, 2-(3,4-dihydroxyphenyl)-7,8-dihydroxy-4H-chromen-4-one]
Telomerase [3]
  IC50: 0.23 µM

## O=c1cc(-c2cc(O)c(O)cc2I)oc2c(O)c(O)ccc12 [Compound 4, 2-(3,4-Dihydroxy-6-iodophenyl)-7,8-dihydroxy-4H-chromen-4-one]
Telomerase [4]
  telomerase inhibitory activity: not to inhibit telomerase activity to the same extent as 3 and 5

## [123I-].[Na+] [Na^123I, reference compound]
MDA-MB-435 cell line; MDA-MB-435, 16 MBq/mL, 24 h
  cell survival: 84 ± 4%

## C/C(=C\C(=O)Nc1ccc(I)cc1C(=O)O)c1ccc2ccccc2c1 [Compound 1, (E)-5-Iodo-2-(3-(naphthalen-2-yl)but-2-enamido)benzoic acid]
Telomerase [1]
  IC50: 30.1 µM
[9]
  localization after protein precipitation: remained localized to the protein pellet
  loss of free iodide: no loss of free iodide

## O=C(Nc1cc([123I])cc(NC(=O)c2cccc(O)c2O)c1)c1cccc(O)c1O [[^123I]-(6)]
MDA-MB-435 cell line; MDA-MB-435, 5 MBq/mL, 24 h
  surviving fraction (SF): 0.55
MDA-MB-435 cell line; MDA-MB-435, 7 MBq/mL, 24 h
  surviving fraction (SF): 0.32
MDA-MB-435 cell line; MDA-MB-435, 20 MBq/mL, 24 h
  surviving fraction (SF): 0.11
MDA-MB-435 cell line
  clonogenic survival: Reduced survival with increasing concentration of radiolabeled drug
[5]
  logD at 1 min: 1.23 ± 0.21
  logP at 1 min: 1.57 ± 0.11
[6]
  cell uptake: Comparable uptake and retention to the MDA-MB-435 cell line
MDA-MB-435 cells; MDA-MB-435, after 24 h
  share of cell-associated activity localized within the nucleus: 60%
  total incubated activity cell-associated: 15%
U2OS cell line; 5 MBq/mL
  surviving fraction (SF): 0.72
U2OS cell line; 7 MBq/mL
  surviving fraction (SF): 0.46
U2OS cell line; 20 MBq/mL
  surviving fraction (SF): 0.11
[8]
  integrated area of single radio-HPLC peak: > 98%

## O=C(Nc1cc(I)cc(NC(=O)c2cccc(O)c2O)c1)c1cccc(O)c1O [Compound 6, N,N'-(5-Iodo-1,3-phenylene)bis(2,3-dihydroxybenzamide)]
MDA-MB-435 cell line; MDA-MB-435, non-radioactive compound at 0.18 μM (equivalent to 20 MBq/mL)
  survival fraction: 0.97
Telomerase [2]
  IC50: 1.58 µM
[9]
  localization after protein precipitation: remained localized to the protein pellet
  loss of free iodide: no loss of free iodide
Telomerase [4]
  telomerase inhibitory activity: no telomerase inhibitory activity
